Source: patent US9687522B2, “Methods of treating a subject afflicted with an autoimmune disease using predictive biomarkers of clinical response to glatiramer acetate therapy in multiple sclerosis” (TEVA PHARMACEUTICAL INDUSTRIES, LTD., priority 2010, dated 2017)

Experiments:
[1] = system: IL-10; test: IL-10 by ELISA in ex-vivo PBMC supernatant of GA-treated MS patients; type: cell-based, human
Experimental: (§1) Approximately 60 cc of blood was obtained by venipuncture from each MS patient pre-treatment and at successive time points during treatment (3 months, 6 months, 9-12 months and 24 months). PBMC were purified using Ficoll-Hypaque gradients as described in the supplier's protocol (ICN Biomedicals Inc. Ohio, USA). Samples from collaborating centers were sent via overnight FedEx™ delivery at room temperature and processed immediately upon arrival.
(§2) 2×10^5 PBMC/well were seeded in 96 well U-bottom micro titer plate in the absence of antigen (unstimulated condition) (US) or the presence of GA at 40 and 100 μg/ml (Teva Pharmaceutical Industries, Ltd., Israel), tetanus toxoid (TT 5 μg) obtained from UMASS (University of Mass, Worcester, Mass.). The latter was used as a control antigen. Supernatants were collected from cultured cells at days 1, 3 and 5 for various assays. After 5 days, 1 μCi ^3H-thymidine was added. Cells were harvested 18 hours later using TOMTEC cell harvester (TOMTEC, Hamden Conn.). Incorporated radioactivity was measured using a liquid Scintillation counter (Wallac MicroBeta Trilux, PerkinElmer, Boston, Mass.).
(§3) Interleukin-18 and caspase-1 levels were detected by human ELISA kits (Sandwich ELISA, Bender Nedaystems, USA). The sensitivity of the ELISA was 9.2 and 3.3 pg/ml for IL-18 and caspase-1 respectively. TGF-β, TNF-α, IL-4, IFN-γ, IL-17 and IL-10 levels were detected by human ELISA kits from ebioscience (San Diego Calif., 92121 USA). The sensitivity of the ebioscience kits were 60 pg/ml, 4 pg/ml, 2 pg/ml, 4 pg/ml, 4 pg/ml and 2 pg/ml respectively. BDNF was detected by the Human BDNF ELISA kit from Chemicon International (catalog #CYT306). The sensitivity of the BDNF ELISA was 7.8 pg/ml. […] Duplicates should be within 20% of the mean.

[2] = system: IL-10; test: Serum IL-10 by ELISA in GA-treated MS patients; type: in vivo, human
Text: as §1, §3

[3] = system: class II MHC molecules of mouse and human origin; conditions: cited from earlier work
[4] = system: IL-18; test: IL-18 by ELISA in ex-vivo PBMC supernatant of GA-treated MS patients; type: cell-based, human; conditions: both groups
Experimental: as §1
as §2, with “Cells were harvested 18 hours later using TOMTEC cell harvester (TOMTEC, Hamden Conn.).” left out
Interleukin-18 and caspase-1 levels were detected by human ELISA kits (Sandwich ELISA, Bender Nedaystems, USA). […] TGF-β, TNF-α, IL-4, IFN-γ, IL-17 and IL-10 levels were detected by human ELISA kits from ebioscience (San Diego Calif., 92121 USA). […] BDNF was detected by the Human BDNF ELISA kit from Chemicon International (catalog #CYT306). […]

[5] = system: RRMS subjects; conditions: cited from earlier work
[6] = system: TGF-β; test: Serum TGF-β by ELISA in GA-treated MS patients; type: in vivo, human
Text: as §1, §3

[7] = system: IFN-γ; test: IFN-γ ELISPOT in ex-vivo PBMC of GA-treated MS patients; type: cell-based, human; conditions: CD3/CD28 stimulated PBMC
Text: as §1
(§4) Human IFN-γ (Th1 indicator) and IL-4 (Th2 indicator) were measured by the ELISPOT assay according to the manufacturer's protocol (BD Biosciences, San Diego, Calif., USA). Briefly, ELISPOT plates (PVDF plate, Millipore Corporation, MA, USA) were coated with 100 μl/well of 5 μg/ml capture antibody at 4° C. over night. The plates were then washed with PBS, and incubated with 200 μl/well of blocking solution (culture medium) for 2 hours. PBMC (2×10^5 cells/well for IFN-γ and 4×10^5 cells/well for IL-4 detection) and antigen (GA 40 and 100 μg/ml, TT 5 μg/ml, CD3Ab (2.5 μg/ml)/CD28 Ab (1 μg/ml)) was added and cultured overnight at 37° C. in a 5% CO2 incubator. Samples were tested in triplicate wells in response to each antigen. After overnight culture, the plates were washed twice with deionized water and three times with PBS, then incubated with 100 μl of 2.0 μg/ml biotinylated antibody for 2 hours at room temperature. The plates were then washed three times with wash buffer (0.05% Tween-20 PBS), and incubated with 100 μl of 1:100 dilution of Avidin-HRP for 1 hour at room temperature and washed three times with wash buffer. Finally 100 μl of AEC (3-amino-9-ethyl-carbazole) substrate was added and the reaction was stopped by washing plates with distilled water. Spots were counted and analyzed by CTL Analyzers LLC ELISPOT Plate Reader (Cleveland, Ohio, USA).

[8] = system: BDNF; test: Serum BDNF by ELISA in GA-treated MS patients; type: in vivo, human; conditions: GA-R and GA-HR/NR, all treatment time points
Text: as §1, §3

[9] = system: IL-4/IFN-γ ratio; test: IL-4/IFN-γ ratio by ELISPOT in ex-vivo PBMC of GA-treated MS patients; type: cell-based, human; conditions: for IL-4/IFN-γ RATIO (ELISPOT): CD3/CD28 stimulated PBMC
Text: as §1, §4

[10] = GA 20 mg, largest controlled study

Glatiramer acetate [GA]
Supernatant IL-10 level ([1]; HR/NR, 3 mo): 160 ± 65 pg/mL | Supernatant IL-10 level ([1]; HR/NR, 6 mo): 153 ± 69 pg/mL | Supernatant IL-10 level ([1]; HR/NR, 9-12 mo): 181 ± 22 pg/mL | Supernatant IL-10 level ([1]; HR/NR, 24 mo): 200 ± 59 pg/mL | Supernatant IL-10 level ([1]; HR/NR, Pre-Rx): 143 ± 61 pg/mL | Supernatant IL-10 level ([1]; R, 3 mo): 200 ± 65 pg/mL | Supernatant IL-10 level ([1]; R, 6 mo): 310 ± 64 pg/mL | Supernatant IL-10 level ([1]; R, 9-12 mo): 249 ± 70 pg/mL | Supernatant IL-10 level ([1]; R, 24 mo): 255 ± 45 pg/mL | Supernatant IL-10 level ([1]; R, Pre-Rx): 170 ± 60 pg/mL | Serum IL-10 level ([2]; HR/NR, 3 mo): 40 ± 7.0 pg/mL | Serum IL-10 level ([2]; HR/NR, 6 mo): 37 ± 8.3 pg/mL | Serum IL-10 level ([2]; HR/NR, 9-12 mo): 40 ± 7.0 pg/mL | Serum IL-10 level ([2]; HR/NR, 24 mo): 37.6 ± 5 pg/mL | Serum IL-10 level ([2]; HR/NR, Pre-Rx): 38 ± 9 pg/mL | Serum IL-10 level ([2]; R, 3 mo): 47 ± 8.1 pg/mL | Serum IL-10 level ([2]; R, 6 mo): 67 ± 11 pg/mL | Serum IL-10 level ([2]; R, 9-12 mo): 69.8 pg/mL | Serum IL-10 level ([2]; R, 24 mo): 56 ± 18 pg/mL | Serum IL-10 level ([2]; R, Pre-Rx): 32 ± 4.5 pg/mL | Δ IL-10 6 months, Median (Non-Responders) ([2]; serum, change from baseline): −1.5 | Δ IL-10 6 months, Median (Responders) ([2]; serum, change from baseline): 15 | Δ IL-10 9 months, Median (Non-Responders) ([2]; serum, change from baseline): −2 | Δ IL-10 9 months, Median (Responders) ([2]; serum, change from baseline): 42 | Δ IL-10 24 months, Median (Non-Responders) ([2]; serum, change from baseline): 1 | Δ IL-10 24 months, Median (Responders) ([2]; serum, change from baseline): 29 | binding to class II MHC molecules [3]: binds promiscuously and with high affinity | Supernatant IL-18 levels, change during GA treatment [4]: did not show any significant changes from baseline | median cumulative number of Gd-enhancing lesions ([5]; 20 mg group, over 9 months of treatment): 11 lesions | relapse rate [5, 10]: 1.34 | relapse rate reduction versus placebo [5, 10]: 32% | tolerability ([5]; daily standard dose of 20 mg): generally well tolerated | Serum TGF-β level ([6]; HR/NR, 3 mo): 1921 ± 150 pg/mL | Serum TGF-β level ([6]; HR/NR, 6 mo): 1723 ± 147 pg/mL | Serum TGF-β level ([6]; HR/NR, 9-12 mo): 1727 ± 97 pg/mL | Serum TGF-β level ([6]; HR/NR, 24 mo): 1844 ± 53 pg/mL | Serum TGF-β level ([6]; HR/NR, Pre-Rx): 1796 ± 95 pg/mL | Serum TGF-β level ([6]; R, 3 mo): 1908 ± 70 pg/mL | Serum TGF-β level ([6]; R, 6 mo): 1968 ± 75 pg/mL | Serum TGF-β level ([6]; R, 9-12 mo): 1901 ± 64 pg/mL | Serum TGF-β level ([6]; R, 24 mo): 1983 ± 93 pg/mL | Serum TGF-β level ([6]; R, Pre-Rx): 1774 ± 48 pg/mL | IFN-γ expression (ELISPOT, mean number of spots) ([7]; HR/NR, 3 mo): 206 ± 24 | IFN-γ expression (ELISPOT, mean number of spots) ([7]; HR/NR, 6 mo): 233 ± 26 | IFN-γ expression (ELISPOT, mean number of spots) ([7]; HR/NR, 9-12 mo): 218 ± 34 | IFN-γ expression (ELISPOT, mean number of spots) ([7]; HR/NR, 24 mo): 186 ± 35 | IFN-γ expression (ELISPOT, mean number of spots) ([7]; HR/NR, Baseline): 192 ± 26 | IFN-γ expression (ELISPOT, mean number of spots) ([7]; R, 3 mo): 182 ± 18 | IFN-γ expression (ELISPOT, mean number of spots) ([7]; R, 6 mo): 150 ± 15 | IFN-γ expression (ELISPOT, mean number of spots) ([7]; R, 9-12 mo): 110 ± 19 | IFN-γ expression (ELISPOT, mean number of spots) ([7]; R, 24 mo): 86 ± 14 | IFN-γ expression (ELISPOT, mean number of spots) ([7]; R, Baseline): 197 ± 28 | Serum BDNF levels, change during GA treatment [8]: did not show significant changes during treatment from baseline in either group | IL-4/IFN-γ RATIO (ELISPOT) ([9]; HR/NR, 3 mo): 0.08 ± 0.02 | IL-4/IFN-γ RATIO (ELISPOT) ([9]; HR/NR, 6 mo): 0.06 ± 0.05 | IL-4/IFN-γ RATIO (ELISPOT) ([9]; HR/NR, 9-12 mo): 0.08 ± 0.05 | IL-4/IFN-γ RATIO (ELISPOT) ([9]; HR/NR, 24 mo): 0.10 ± 0.05 | IL-4/IFN-γ RATIO (ELISPOT) ([9]; HR/NR, Baseline): 0.12 ± 0.05 | IL-4/IFN-γ RATIO (ELISPOT) ([9]; R, 3 mo): 0.24 ± 0.04 | IL-4/IFN-γ RATIO (ELISPOT) ([9]; R, 6 mo): 0.32 ± 0.07 | IL-4/IFN-γ RATIO (ELISPOT) ([9]; R, 9-12 mo): 0.34 ± 0.08 | IL-4/IFN-γ RATIO (ELISPOT) ([9]; R, 24 mo): 0.25 ± 0.07 | IL-4/IFN-γ RATIO (ELISPOT) ([9]; R, Baseline): 0.11 ± 0.02 | IL-4/IFN-γ ratio in unstimulated and in anti-CD3/CD28 stimulated PBMC ([9]; GA-R, during treatment versus pre-treatment): significantly higher among GA-R during treatment compared to pre-treatment levels
